Consider 15 compounds from publication PMC12420824, “Discovery of a selective alpha-kinase 1 inhibitor for the rare genetic disease ROSAH syndrome” (Nature Communications, 2025).

Test [1] deals with HEK-293 cells transfected with GFP-TIFA. Put plainly: DF-006-induced TIFAsome formation. The settings on record: 1 μM DF-006 alone.
Procedure: Curve fitting and IC50 value calculations were performed with GraphPad Prism 6.
HEK-293 cells were purchased from the Cell Bank of The Chinese Academy of Sciences and routinely cultured in DMEM/High-Glucose (Hyclone). For TIFAsome analyses, the coding sequence for the GFP-TIFA fusion protein was cloned into the pcDNA3.1 plasmid. […] Each condition was conducted in sextuplicate. Cells were fixed with 4% paraformaldehyde and stained with DAPI (Shanghai Zhenghuang, Shanghai, China; C1005). Fluorescent images were acquired using a Motic upright fluorescent microscope (PA53 BIO FS6).
For a further test, the system named is ROSAH patients. The settings on record: ROSAH patients ref 3; cited from earlier work.
The target in test [2] is T1, full-length ALPK1 (Homo sapiens, UniProt Q96QP1).
T1 construct: recombinant full-length ALPK1 kinase purified from Sf9 cells; 3xFlag (C); made in house; host or cells: Sf9 insect cells (baculovirus, pFAST-BAC)
T1 sequence (Q96QP1 whole entry): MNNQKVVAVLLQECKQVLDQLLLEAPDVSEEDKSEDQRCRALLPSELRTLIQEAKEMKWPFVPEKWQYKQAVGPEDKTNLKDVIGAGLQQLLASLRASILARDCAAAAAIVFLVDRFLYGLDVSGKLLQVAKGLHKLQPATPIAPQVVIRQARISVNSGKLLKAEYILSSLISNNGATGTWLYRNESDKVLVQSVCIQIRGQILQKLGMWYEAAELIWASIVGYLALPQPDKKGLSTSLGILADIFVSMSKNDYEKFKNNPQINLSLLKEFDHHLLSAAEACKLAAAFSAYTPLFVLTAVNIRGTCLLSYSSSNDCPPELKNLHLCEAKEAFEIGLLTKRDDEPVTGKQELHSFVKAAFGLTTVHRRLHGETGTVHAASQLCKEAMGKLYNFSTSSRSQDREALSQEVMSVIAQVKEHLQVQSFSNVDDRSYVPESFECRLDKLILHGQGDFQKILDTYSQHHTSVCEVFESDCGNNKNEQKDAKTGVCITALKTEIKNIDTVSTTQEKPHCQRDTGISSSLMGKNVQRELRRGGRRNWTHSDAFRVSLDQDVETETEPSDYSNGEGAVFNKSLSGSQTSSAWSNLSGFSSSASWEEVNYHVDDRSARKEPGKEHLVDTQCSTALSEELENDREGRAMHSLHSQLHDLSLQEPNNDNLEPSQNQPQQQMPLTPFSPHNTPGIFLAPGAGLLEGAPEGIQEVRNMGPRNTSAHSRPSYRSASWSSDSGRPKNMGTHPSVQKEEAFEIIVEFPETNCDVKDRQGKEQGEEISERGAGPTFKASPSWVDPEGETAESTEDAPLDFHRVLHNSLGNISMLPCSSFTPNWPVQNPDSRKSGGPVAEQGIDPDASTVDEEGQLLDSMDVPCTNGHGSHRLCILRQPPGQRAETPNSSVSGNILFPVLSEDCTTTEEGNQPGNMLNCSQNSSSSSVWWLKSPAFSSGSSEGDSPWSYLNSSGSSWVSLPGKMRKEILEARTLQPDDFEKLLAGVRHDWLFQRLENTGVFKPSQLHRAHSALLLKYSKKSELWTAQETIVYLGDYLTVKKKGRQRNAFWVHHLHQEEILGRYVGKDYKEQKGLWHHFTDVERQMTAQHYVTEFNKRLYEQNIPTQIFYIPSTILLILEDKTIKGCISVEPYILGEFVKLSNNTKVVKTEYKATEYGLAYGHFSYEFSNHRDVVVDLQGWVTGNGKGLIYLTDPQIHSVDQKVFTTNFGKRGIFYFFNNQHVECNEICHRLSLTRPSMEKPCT
The test can be described thus: Thermal shift assay (TSA). The settings on record: for TSA Tm Increase: compound at 10 μM; for increase in melting temperature (Tm): pilot TSA screen / assay validation. The format is binding. As for the experimental part: A small molecule library containing ~160,000 compounds (HTS Diversity V2) was prepared by WuXi AppTec (Shanghai, China) in 384 well thin-wall qPCR plates, with 20 nL of 10 mM compound preparations in each well. On each screening plate, 2 columns of wells were loaded with 20 nL of pure DMSO to leave spaces for negative controls (no compounds) and the positive control (AS-252424). […] The mixture was spun down at 1000 rpm for 1 min, then immediately applied to a protein melting reaction on a Roche LightCycler® 480 II Real-time PCR system, heating the mixture from 30 °C to 50 °C at the ramp rate of 0.02 °C/s while continuously acquiring the fluorescence signal. The melting temperature (Tm) of the ALPK1 protein with or without each compound was calculated using the Protein Thermal Shift™ Analysis Desktop Software v1.2 (Thermo Fisher Scientific). For positive control wells, 40 μM AS-252424 in 5 μl compound solvent was added manually and used as a positive control in the thermal shift screening.

Test [3] concerns the target T2, ALPK1 (Homo sapiens, UniProt Q96QP1). Put plainly: Western blotting-based in vitro kinase assay. The format is biochemical. Particulars: 20 µM. As for the experimental part: Compounds were tested at a single final concentration of 20 μM in an in vitro kinase assay including 30 nM recombinant ALPK1 (purified from 293-F cells stimulated with 4% s.t. lysate 4 h before cell lysis) and 1.6 μM His-tagged TIFA in a 20 µl volume. […] An in vitro kinase reaction was conducted at 27 °C for 40 min in the following buffer: 20 mM HEPES pH 7.0, 1 mM TCEP, 10 mM MgCl2, 0.1 mM Na3VO4, 0.6 μM BSA, 5% DMSO and 25 μM ATP. […] After these in vitro kinase reactions, the kinase-substrate mix was fractionated by electrophoresis on denaturing SDS-PAGE gels and transferred to Immobilon-P PVDF membranes (Millipore, MA, USA). Membranes were blocked with 5% milk in TBS with 0.1% Triton-X100. Phosphorylated TIFA were detected by incubating the membrane with an anti-phospho-threonine (#9386, Cell Signaling Technology, Danvers, MA, USA) antibody. […]
compounds used in the Western blotting to measure the ability of compounds to inhibit the ALPK1-mediated phosphorylation of TIFA. (b) Example of the biochemical approach to validate hits from the thermal shift assay screen. ALPK1 binding compounds were tested in triplicate in an in vitro kinase assay at a final concentration of 20 µM, and the inhibitory effect was evaluated by comparing the phosphorylated TIFA level to that for the no compound control after the kinase reaction by Western blotting.
Phosphorylated TIFA was detected using an anti-phospho-theronine antibody. ALPK1 binders fell into three categories: inhibitors (e.g. WXHTS0017849, WXHTS WXHTS0037341), activators (e.g.
WXHTS0086594), and those with no effect (e.g. WXHTS0035788). […]
Background: In western blotting, separated proteins are transferred to a membrane and probed.

Test [4] addresses T1, full-length ALPK1. The test can be described thus: Surface plasmon resonance (SPR). It is filed as binding. The settings on record: with 500 nM ADP-L-heptose. As for the experimental part:
SPR assays were conducted on a Biacore 8 K (Cytiva). […] For analyte testing, flow rates were maintained at 30 µL/min. […] The data collection rate was 10 Hz, and all data were double referenced and solvent corrected. Analysis was performed using Biacore Insight Evaluation software version 5. The 1:1 kinetic binding affinity models were used to fit the data, and all parameters were fitted globally.
On the technique in general: In SPR one partner is held on a chip, and binding of the other changes the refractive index at the surface.

Test [5] has as its target T2, ALPK1. Put plainly: biochemical.
Procedure: The 10 µL kinase reactions were allowed to proceed for 1.5 h at 27 °C. Kinase reactions were terminated by adding 10 µL of the HTRF KinEASE detection kit buffer (Cisbio, Bedford, MA, USA; 62SDBRDF) containing monoclonal anti-HA-Eu cryptate (Cisbio; 610HAKLB) and monoclonal Anti HA-d2 to each well. TIFA phosphorylation levels were monitored through the detection of oligomerization signals generated upon TIFAsome assembly. Both donor and acceptor antibodies recognize TIFA and will generate a TR-FRET signal when bound to the same TIFA oligomer formed upon TIFA phosphorylation. […] The TR-FRET signals were calculated as the ratio of the acceptor and donor emission signals with the formula below:
ALPK1 kinase activity was calculated as follows: % Activity = 100% × (TR-FRET signal of test compound - mean TR-FRET signal of no ATP 1% DMSO control) / (mean TR-FRET signal of 1% DMSO control – mean TR-FRET signal of no ATP 1% DMSO control).
In multi-dose assays, compound activity was calculated via logarithmic interpolation. Concentration-response curves were fitted with a four-parameter logistic nonlinear regression model and the IC50 values for these compounds were calculated in GraphPad Prism 6.

Values joined by “and” are separate entries in the source; they are usually repeats but may differ in a detail not shown here. Equal values may be shown once.

T2 sequence (Q96QP1 whole entry): as above

Consider `CC(=O)OCC(F)C1OC(OP(=O)(O)OP(O)(=S)OCC2OC(n3cnc4c(N)ncnc43)C(O)C2O)C(OC(C)=O)C(OC(C)=O)C1OC(C)=O` [DF-006, D-glycero-D-manno-6-fluoro-2,3,4,7-Ac-heptose-1β-S-ADP, reference compound], for which the “Cells with TIFAsomes /GFP positive cells (%)” value in test [1] was 50.51% and 61.9% and 51.29% and 50.95% and 60.98%. With “tocilizumab: anti-IL-6 drug given off-label to ROSAH patients”, the intraocular inflammation entry in the test with ROSAH patients is “improved intraocular inflammation (two of two patients)”. Turning to `CO[C@@H]1[C@@H](OC(N)=O)[C@@H](O)[C@H](Oc2ccc3c(O)c(NC(=O)c4ccc(O)c(CC=C(C)C)c4)c(=O)oc3c2C)OC1(C)C` [Novobiocin], the “TSA Tm Increase” value at full-length ALPK1 [2] is 1.4 °C. As for `Nc1nc(C2(c3ccccc3)CCCC2)cs1` [WXHTS0037341], the “effect on ALPK1-mediated TIFA phosphorylation” value (from here on “effect”) at ALPK1 [3] is on record as “inhibitors”. By Kd is commonly meant the constant that tells how readily two partners part at equilibrium. A low value points to higher affinity. `Brc1c(Br)c(Br)c2n[nH]nc2c1Br` [Tbb] had a Kd on full-length ALPK1 [4] of 265 µM. Moreover, the “TSA Tm Increase” value on full-length ALPK1 [2] was 3.4 °C. On to `Cc1ccc(NC(=O)NCC(O)c2ccc(F)cc2F)cc1Cl` (stereo not shown) [WXHTS0086594], for which the “effect” value on ALPK1 [3] was “activators”. With `CC(=O)Oc1ccccc1-c1cccc(Cn2cccc(C(=O)Nc3ccc(-c4ccccc4)cc3)c2=O)c1` [WXHTS0035788], the “effect” value on ALPK1 [3] is given as “no effect”. Regarding `Nc1ncnc2c1ncn2[C@@H]1O[C@H](COP(=O)(O)OP(=O)(O)O)[C@@H](O)[C@H]1O` [ADP], at full-length ALPK1 [2], the “increase in melting temperature (Tm)” value was 1.4 °C. As to `O=C(O)c1cc(/N=N/c2ccc(S(=O)(=O)Nc3ccccn3)cc2)ccc1O` [Sulfasalazine], binding on full-length ALPK1 [4] was characterised by a dissociation constant (Kd) of 281 µM. The “TSA Tm Increase” value on full-length ALPK1 [2] is 2.0 °C. As for `Nc1c(-c2ccncc2)sc2nc(-c3cccs3)ccc12` [WXHTS0017849], the “effect” value at ALPK1 [3] is recorded as “inhibitors”. At full-length ALPK1 [4], `O=C1NC(=O)/C(=C/c2ccc(-c3ccc(F)cc3O)o2)S1` [AS-252424] gave a Kd of 1 µM. Besides, at full-length ALPK1 [2], the “TSA Tm Increase” value was found to be 3.4 °C and the “increase in melting temperature (Tm)” value was determined as 3.4 °C. In the case of `O=C(O)c1cccnc1Nc1cccc(C(F)(F)F)c1` [Niflumic acid], the Kd on full-length ALPK1 [4] was determined as 7 µM. Moreover, the “TSA Tm Increase” value at full-length ALPK1 [2] was 1.8 °C. As to `Cc1ccc(C(=O)c2cc(O)c(O)c([N+](=O)[O-])c2)cc1` [Tolcapone], the Kd on full-length ALPK1 [4] was found to be 97 µM. In addition, the “TSA Tm Increase” value on full-length ALPK1 [2] was 2.2 °C. Also, on ALPK1 [3], the “effect” value was “inhibit ALPK1 activity”. For orientation: IC50 means the concentration that inhibits the measured activity by half. Read a high IC50 as a need for much substance. Take `CC1=NN(c2ccc(C)c(C)c2)C(=O)/C1=N\Nc1cccc(-c2cccc(C(=O)O)c2)c1O` [Eltrombopag]: the Kd on full-length ALPK1 [4] was found to be 10 µM. In addition, at full-length ALPK1 [2], the “TSA Tm Increase” value is 3.6 °C. On ALPK1 [3], the “effect” value is recorded as “inhibit ALPK1 activity”. The compound further displayed an IC50 at ALPK1 [5] of 7.6 µM.

For the compound `Nc1ncnc2c1ncn2[C@@H]1O[C@H](COP(=O)(O)OP(=O)(O)OP(=O)(O)O)[C@@H](O)[C@H]1O` [ATP], the “increase in melting temperature (Tm)” value on full-length ALPK1 [2] is 1.1 °C.
